Measured values: publication PMC6155631, “Immobilized Trienzymatic System with Enhanced Stabilization for the Biotransformation of Lactose” (Molecules : A Journal of Synthetic Chemistry and Natural …, 2017)

Target: T1, β-galactosidase from Bacillus circulans (Biolacta N-5) (Niallia circulans, UniProt E5RWQ2)
T1 construct: gene bga; commercial Biolacta N-5 (Daiwa Kasei), partially purified; several isoforms, called monomeric
Assay: batch hydrolysis, HPLC
Type: biochemical
Conditions: soluble enzyme together with P1 and P2; Mozzarella whey lactose, 50 °C, 6 h
Description: batch hydrolysis, HPLC on β-galactosidase from Bacillus circulans (Biolacta N-5)

T1 sequence (E5RWQ2 24-1737): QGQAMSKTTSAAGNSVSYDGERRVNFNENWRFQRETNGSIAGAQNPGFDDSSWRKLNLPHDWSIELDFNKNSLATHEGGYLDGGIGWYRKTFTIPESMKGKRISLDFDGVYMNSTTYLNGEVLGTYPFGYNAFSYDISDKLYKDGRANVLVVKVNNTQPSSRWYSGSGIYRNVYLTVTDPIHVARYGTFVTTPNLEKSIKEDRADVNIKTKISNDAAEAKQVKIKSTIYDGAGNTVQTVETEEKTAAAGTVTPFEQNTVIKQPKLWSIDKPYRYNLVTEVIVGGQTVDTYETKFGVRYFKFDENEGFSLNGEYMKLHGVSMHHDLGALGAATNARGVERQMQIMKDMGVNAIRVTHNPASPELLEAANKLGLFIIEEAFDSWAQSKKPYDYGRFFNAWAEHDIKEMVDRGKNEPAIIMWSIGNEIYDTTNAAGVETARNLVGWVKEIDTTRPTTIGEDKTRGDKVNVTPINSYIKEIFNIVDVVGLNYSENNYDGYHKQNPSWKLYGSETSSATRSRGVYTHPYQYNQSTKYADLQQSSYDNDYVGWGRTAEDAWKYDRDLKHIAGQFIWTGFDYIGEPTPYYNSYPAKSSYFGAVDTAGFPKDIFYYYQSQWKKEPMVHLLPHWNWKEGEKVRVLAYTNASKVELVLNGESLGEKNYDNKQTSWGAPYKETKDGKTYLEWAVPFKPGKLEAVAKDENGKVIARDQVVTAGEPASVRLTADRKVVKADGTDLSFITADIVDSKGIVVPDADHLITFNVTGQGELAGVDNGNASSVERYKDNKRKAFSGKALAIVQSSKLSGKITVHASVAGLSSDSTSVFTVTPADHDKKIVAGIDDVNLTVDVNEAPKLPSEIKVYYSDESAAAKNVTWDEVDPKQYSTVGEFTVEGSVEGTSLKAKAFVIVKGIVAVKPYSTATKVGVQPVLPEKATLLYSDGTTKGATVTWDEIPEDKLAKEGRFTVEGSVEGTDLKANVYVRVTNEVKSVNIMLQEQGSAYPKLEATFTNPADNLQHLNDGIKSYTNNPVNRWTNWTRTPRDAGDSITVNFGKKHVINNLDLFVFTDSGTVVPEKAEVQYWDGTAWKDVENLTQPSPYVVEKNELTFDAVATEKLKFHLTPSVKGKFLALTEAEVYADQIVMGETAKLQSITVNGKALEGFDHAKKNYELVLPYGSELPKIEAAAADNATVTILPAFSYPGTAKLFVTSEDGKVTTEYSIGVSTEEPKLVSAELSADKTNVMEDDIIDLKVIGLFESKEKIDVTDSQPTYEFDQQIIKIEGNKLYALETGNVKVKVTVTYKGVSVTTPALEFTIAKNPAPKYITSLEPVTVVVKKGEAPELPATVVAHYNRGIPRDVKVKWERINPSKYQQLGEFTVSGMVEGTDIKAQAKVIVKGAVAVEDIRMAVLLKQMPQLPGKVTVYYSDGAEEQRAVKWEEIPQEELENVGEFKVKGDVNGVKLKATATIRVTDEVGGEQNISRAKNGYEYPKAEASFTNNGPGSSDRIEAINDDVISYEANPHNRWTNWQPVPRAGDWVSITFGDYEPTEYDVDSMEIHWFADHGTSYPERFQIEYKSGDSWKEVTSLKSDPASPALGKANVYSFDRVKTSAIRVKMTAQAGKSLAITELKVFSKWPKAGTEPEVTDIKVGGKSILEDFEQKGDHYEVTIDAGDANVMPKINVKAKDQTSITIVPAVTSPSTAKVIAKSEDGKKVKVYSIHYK

Lactolysis (%): 76 ± 1%
Compound: OC[C@H]1O[C@@H](O[C@H]2[C@H](O)[C@@H](O)C(O)O[C@@H]2CO)[C@H](O)[C@@H](O)[C@H]1O (stereo partly shown) [lactose]
